Measurements as given in patent US20110262352A1, “ARYL PIPERAZINE AND THEIR USE AS ALPHA2C ANTAGONISTS” (priority 2008, published 2011).
Read-outs that look alike come from different tables or passages of the source.

What was measured:
human alpha2A receptors = target: T1, human alpha2A receptors (Homo sapiens, UniProt P08913); test: Determination of alpha2A antagonistic activity in vitro (intracellular calcium, FLIPR Calcium 3); assay type: cell-based; details: CHO cells stably transfected with human alpha2A receptor and Gα16; stimulated with 100 nM adrenaline or 200 nM noradrenaline; 37° C.
T1 construct: host or cells: Chinese hamster ovary (CHO) cells, cotransfected with pCEP-Gα16
T1 sequence (P08913 1-465): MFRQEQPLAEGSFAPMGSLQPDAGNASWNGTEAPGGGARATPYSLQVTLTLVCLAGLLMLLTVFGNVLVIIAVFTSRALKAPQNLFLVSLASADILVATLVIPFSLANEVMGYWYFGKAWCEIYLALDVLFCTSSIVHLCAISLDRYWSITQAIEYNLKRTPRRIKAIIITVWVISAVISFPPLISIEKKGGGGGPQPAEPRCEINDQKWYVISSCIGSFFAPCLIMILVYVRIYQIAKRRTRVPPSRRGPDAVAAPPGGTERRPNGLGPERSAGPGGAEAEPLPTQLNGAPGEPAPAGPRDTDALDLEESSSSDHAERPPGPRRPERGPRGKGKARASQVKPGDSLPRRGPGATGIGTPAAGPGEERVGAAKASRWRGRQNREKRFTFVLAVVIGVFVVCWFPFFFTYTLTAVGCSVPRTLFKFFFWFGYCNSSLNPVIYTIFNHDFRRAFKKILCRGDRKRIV
Description: (§1) Experiment 1: Determination of alpha2A and alpha2C Antagonistic Activity In Vitro
(§2) Chinese hamster ovary (CHO) cells stably transfected with human alpha2A or alpha2C receptors (University of Turku, Finland) were cotransfected with the expression vector pCEP-Gα16 (Molecular Devices, CA, USA) were used in this experiment. The cells were maintained at 37° C. in a 5% CO2/95% air atmosphere. The cells were cultured in HAM F-12 medium supplemented with 10% FCS, 25 mM HEPES, 100 IU/ml penicillin, 100 μg/ml streptomycin, 500 μg/ml geneticin and 240 μg/ml hygromycin B. The cells were subcultured twice weekly with 0.25% trypsin and 1 mM EDTA. The subculture ratio was 1:5-1:20. The growth medium was changed every 2 or 3 days. All cell culture reagents were from Gibco. The day before the experiment the cells were plated into black-walled, clear bottom 96-well plates at a density of 30,000-45,000 cells/well.
(§3) The growth medium was removed and the cells were incubated with the test compounds and the FLIPR Calcium 3 Assay reagent (Molecular Devices, CA, USA) for 1 h at 37° C. in dark. The test compounds (concentrations in cells 100 pM-10 μM) were dissolved in Probenecid-Ringer consisting of 150 mM NaCl, 3 mM KCl, 1.2 mM MgCl2, 1 mM CaCl2, 5 mM glucose, 20 mM HEPES and 2.5 mM probenecid (pH 7.4 adjusted with 1.0 M NaOH). The osmolarity was adjusted to 322 milliosmoles with Osmostat® OM-6020 osmometer (DIC Kyoto Daiichi Kagagu Co. Ltd, Japan). […] All experiments were performed at 37° C. The test compounds dissolved in Probenecid-Ringer were applied by FLEX station at 17 s time point. […] In order to determine antagonism, the cells were stimulated either with 100 nM adrenaline or 200 nM noradrenaline and the test compounds were added to the cells at least 5 min before the experiment. Typically, there were four replicates at each concentration and seven different dose levels. For example, if the number of plates from which results were obtained was three, 84 (4*7*3) wells were thus measured to construct dose-response relationship. The samples were excited at 485 nm and emission was detected at 525 nm with a 515 nm cut-off filter. Reading time was 60 s per well and the photomultiplier sensitivity value was set to 15. The minimum fluorescence value subtracted from the maximum value for each well was used in the calculations. SOFTmax PRO version 3.2 software was used for analyzing the results. Fitting of the antagonist dose-response results was performed with the free Hill equation and the IC50 values were fitted with Michaelis-Menten equation in Sigma Plot 8.0.

human alpha2C receptors = target: T2, human alpha2C receptors (Homo sapiens, UniProt P18825); test: Determination of alpha2C antagonistic activity in vitro (intracellular calcium, FLIPR Calcium 3); assay type: cell-based
T2 construct: host or cells: Chinese hamster ovary (CHO) cells, cotransfected with pCEP-Gα16
T2 sequence (P18825 1-462): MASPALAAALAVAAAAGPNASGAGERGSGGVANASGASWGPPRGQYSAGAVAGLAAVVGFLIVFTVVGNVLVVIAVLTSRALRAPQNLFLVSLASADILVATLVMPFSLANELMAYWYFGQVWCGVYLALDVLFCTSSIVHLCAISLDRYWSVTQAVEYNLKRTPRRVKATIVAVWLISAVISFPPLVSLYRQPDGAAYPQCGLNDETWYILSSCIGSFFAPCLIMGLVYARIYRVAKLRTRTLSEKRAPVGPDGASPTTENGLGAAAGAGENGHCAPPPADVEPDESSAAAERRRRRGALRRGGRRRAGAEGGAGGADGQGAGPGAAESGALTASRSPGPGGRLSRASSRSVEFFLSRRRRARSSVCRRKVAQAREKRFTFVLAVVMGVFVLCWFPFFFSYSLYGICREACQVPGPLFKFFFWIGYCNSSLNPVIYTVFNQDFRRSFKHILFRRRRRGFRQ
Description: as §1, §2, §3

[1] = CHO cells stably transfected with human alpha2C receptor and Gα16, stimulated with 100 nM adrenaline or 200 nM noradrenaline, 37° C., read-out: IC50/nM Alpha2C

Row | SMILES | IC50 (human alpha2A receptors) | IC50 (human alpha2C receptors; [1]) | IC50 (human alpha2C receptors)
1 | COCc1ccccc1N1CCN(C[C@H]2COc3ccccc3O2)CC1 [Example 17, (S)-1-((2,3-Dihydrobenzo[b][1,4]dioxin-2-yl)methy)-4-(2-(methoxymethyl)phenyl)piperazine] | 2180 nM | 8.2 nM | –
2 | Cc1ccccc1N1CCN(C[C@H]2COc3ccccc3O2)CC1 [Example 31, (S)-1-((2,3-Dihydrobenzo[b][1,4]dioxin-2-yl)methyl)-4-o-tolylpiperazine] | 16900 nM | – | 17.6 nM
3 | COCc1ccccc1N1CCN(C[C@@H]2COc3ccccc3O2)CC1 [Example 18, (R)-1-((2,3-Dihydrobenzo[b][1,4]dioxin-2-yl)methyl)-4-(2-(methoxymethyl)phenyl)piperazine] | 41100 nM | 134 nM | –

Continued, in another order:

Row | IC50 (human alpha2A receptors) | IC50 (human alpha2C receptors; [1]) | SMILES | IC50 (human alpha2C receptors)
4 | 3900 nM | 13.7 nM | COC(=O)c1ccccc1N1CCCN(CC2COc3ccccc3O2)CC1 (stereo not drawn) [Example 36, Methyl 2-(4-((2,3-dihydrobenzo[b][1,4]dioxin-2-yl)methyl)-1,4-diazepan-1-yl)benzoate] | –
5 | 10700 nM | 30.6 nM | OCc1c(F)cccc1N1CCN(CC2COc3ccccc3O2)CC1 (stereo not drawn) [Example 23, (2-(4-((2,3-Dihydrobenzo[b][1,4]dioxin-2-yl)methyl)piperazin-1-yl)-6-fluorophenyl)methanol] | –
6 | 12700 nM | 18 nM | c1coc(-c2ccccc2N2CCN(C[C@H]3COc4ccccc4O3)CC2)c1 [Example 29, (S)-1-((2,3-Dihydrobenzo[b][1,4]dioxin-2-yl)methyl)-4-(2-(furan-2-yl)phenyl)piperazine] | –
